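Following 48 hours of exposure in 96-well plates, responses at five concentrations were used to interpolate endpoints linearly. GI50 marks 50% less growth.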 The source made the active and inactive calls. Rule as the data show it: active = GI50 up to about 1.1 µM and inactive = higher.
Assays:
Assay in all cases: inhibition of tumour cell growth, NCI panel, 48 h
786-0 = tested on: 786-0
A498 = tested on: A498
A549 = tested on: A549
ACHN = tested on: ACHN
BT-549 = tested on: BT-549
CAKI-1 = tested on: CAKI-1
CCRF-CEM = tested on: CCRF-CEM
COLO 205 = tested on: COLO 205
DU-145 = tested on: DU-145
EKVX = tested on: EKVX
HCC 2998 = tested on: HCC 2998
HCT-116 = tested on: HCT-116
HCT-15 = tested on: HCT-15
HL-60 = tested on: HL-60
HOP-62 = tested on: HOP-62
HOP-92 = tested on: HOP-92
HT-29 = tested on: HT-29
Hs-578T = tested on: Hs-578T
IGROV-1 = tested on: IGROV-1
KM12 = tested on: KM12
LOX IMVI = tested on: LOX IMVI
M14 = tested on: M14
MCF7 = tested on: MCF7
MDA-MB-231 = tested on: MDA-MB-231
MDA-MB-435 = tested on: MDA-MB-435
MDA-N = tested on: MDA-N
Malme-3M = tested on: Malme-3M
NCI-H226 = tested on: NCI-H226
NCI-H23 = tested on: NCI-H23
NCI-H460 = tested on: NCI-H460
NCI-H522 = tested on: NCI-H522
NCI/ADR-RES = tested on: NCI/ADR-RES
OVCAR-4 = tested on: OVCAR-4
OVCAR-5 = tested on: OVCAR-5
OVCAR-8 = tested on: OVCAR-8
PC-3 = tested on: PC-3
RPMI-8226 = tested on: RPMI-8226
RXF 393 = tested on: RXF 393
SF-268 = tested on: SF-268
SF-539 = tested on: SF-539
SK-MEL-28 = tested on: SK-MEL-28
SK-MEL-2 = tested on: SK-MEL-2
SK-MEL-5 = tested on: SK-MEL-5
SN12C = tested on: SN12C
SNB-19 = tested on: SNB-19
SNB-75 = tested on: SNB-75
SW-620 = tested on: SW-620
T47D = tested on: T47D
TK-10 = tested on: TK-10
U-251 = tested on: U-251
UACC-257 = tested on: UACC-257
UO-31 = tested on: UO-31
K562 = tested on: K562
MOLT-4 = tested on: MOLT-4
OVCAR-3 = tested on: OVCAR-3
SF-295 = tested on: SF-295
SK-OV-3 = tested on: SK-OV-3
SR = tested on: SR
UACC-62 = tested on: UACC-62

COc1ccc(/C=N\NC(=O)Nc2cccc3ccccc23)cc1
GI50 (786-0): 11.4 µM (inactive)
GI50 (A498): 18.2 µM (inactive)
GI50 (A549): 45.4 µM (inactive)
GI50 (ACHN): 14.5 µM (inactive)
GI50 (BT-549): 29.9 µM (inactive)
GI50 (CAKI-1): 13.7 µM (inactive)
GI50 (CCRF-CEM): > 100 µM (inactive)
GI50 (COLO 205): > 100 µM (inactive)
GI50 (DU-145): 38.5 µM (inactive)
GI50 (EKVX): 26.9 µM (inactive)
GI50 (HCC 2998): 47.5 µM (inactive)
GI50 (HCT-116): 13.7 µM (inactive)
GI50 (HCT-15): 6.79 µM
GI50 (HL-60): 4.82 µM (inactive)
GI50 (HOP-62): 11 µM (inactive)
GI50 (HOP-92): 21.4 µM (inactive)
GI50 (HT-29): 8.97 µM (inactive)
GI50 (Hs-578T): 6.75 µM (inactive)
GI50 (IGROV-1): 17.3 µM (inactive)
GI50 (KM12): 11.7 µM (inactive)
GI50 (LOX IMVI): 13.1 µM (inactive)
GI50 (M14): 35.4 µM (inactive)
GI50 (MCF7): 4.44 µM (inactive)
GI50 (MDA-MB-231): 20.5 µM (inactive)
GI50 (MDA-MB-435): 4.06 µM (inactive)
GI50 (MDA-N): 2.7 µM (inactive)
GI50 (Malme-3M): 26.2 µM (inactive)
GI50 (NCI-H226): 28.2 µM (inactive)
GI50 (NCI-H23): 34.6 µM (inactive)
GI50 (NCI-H460): 10 µM (inactive)
GI50 (NCI-H522): 15.6 µM (inactive)
GI50 (NCI/ADR-RES): 22 µM (inactive)
GI50 (OVCAR-4): 15.6 µM (inactive)
GI50 (OVCAR-5): > 100 µM (inactive)
GI50 (OVCAR-8): > 10 µM (inactive)
GI50 (PC-3): 20.8 µM (inactive)
GI50 (RPMI-8226): > 100 µM (inactive)
GI50 (RXF 393): > 10 µM (inactive)
GI50 (SF-268): 17.7 µM (inactive)
GI50 (SF-539): 14 µM (inactive)
GI50 (SK-MEL-28): > 100 µM (inactive)
GI50 (SK-MEL-2): 9.14 µM (inactive)
GI50 (SK-MEL-5): 28.2 µM (inactive)
GI50 (SN12C): 49.3 µM (inactive)
GI50 (SNB-19): 17.1 µM (inactive)
GI50 (SNB-75): 9.98 µM (inactive)
GI50 (SW-620): 51.6 µM (inactive)
GI50 (T47D): 14.1 µM (inactive)
GI50 (TK-10): 20.7 µM (inactive)
GI50 (U-251): 13.9 µM (inactive)
GI50 (UACC-257): 34.9 µM (inactive)
GI50 (UO-31): 35.3 µM (inactive)

CC(CCN)(CCN)[N+](=O)[O-]
GI50 (786-0): > 100 µM (inactive)
GI50 (A498): > 100 µM (inactive)
GI50 (A549): > 100 µM (inactive)
GI50 (ACHN): > 100 µM (inactive)
GI50 (BT-549): > 100 µM (inactive)
GI50 (CAKI-1): > 100 µM (inactive)
GI50 (CCRF-CEM): > 100 µM (inactive)
GI50 (COLO 205): > 100 µM (inactive)
GI50 (DU-145): > 100 µM (inactive)
GI50 (EKVX): > 100 µM (inactive)
GI50 (HCT-116): > 100 µM (inactive)
GI50 (HCT-15): > 100 µM
GI50 (HL-60): > 100 µM (inactive)
GI50 (HOP-62): > 100 µM (inactive)
GI50 (HOP-92): > 100 µM (inactive)
GI50 (HT-29): > 100 µM (inactive)
GI50 (Hs-578T): > 100 µM (inactive)
GI50 (IGROV-1): > 100 µM (inactive)
GI50 (K562): > 100 µM (inactive)
GI50 (KM12): > 100 µM (inactive)
GI50 (LOX IMVI): > 100 µM (inactive)
GI50 (M14): > 100 µM (inactive)
GI50 (MCF7): > 100 µM (inactive)
GI50 (MDA-MB-231): > 100 µM (inactive)
GI50 (MDA-MB-435): > 100 µM (inactive)
GI50 (MDA-N): > 100 µM (inactive)
GI50 (MOLT-4): > 100 µM (inactive)
GI50 (Malme-3M): > 100 µM (inactive)
GI50 (NCI-H226): > 100 µM (inactive)
GI50 (NCI-H23): > 100 µM (inactive)
GI50 (NCI-H460): > 100 µM (inactive)
GI50 (NCI-H522): > 100 µM (inactive)
GI50 (NCI/ADR-RES): > 100 µM (inactive)
GI50 (OVCAR-3): > 100 µM (inactive)
GI50 (OVCAR-4): > 100 µM (inactive)
GI50 (OVCAR-5): > 100 µM (inactive)
GI50 (OVCAR-8): > 100 µM (inactive)
GI50 (PC-3): > 100 µM (inactive)
GI50 (RPMI-8226): > 100 µM (inactive)
GI50 (RXF 393): > 100 µM (inactive)
GI50 (SF-268): > 100 µM (inactive)
GI50 (SF-295): > 100 µM (inactive)
GI50 (SF-539): > 100 µM (inactive)
GI50 (SK-MEL-28): > 100 µM (inactive)
GI50 (SK-MEL-2): > 100 µM (inactive)
GI50 (SK-MEL-5): > 100 µM (inactive)
GI50 (SK-OV-3): > 100 µM (inactive)
GI50 (SN12C): 77.3 µM (inactive)
GI50 (SNB-19): > 100 µM (inactive)
GI50 (SNB-75): > 100 µM (inactive)
GI50 (SR): > 100 µM (inactive)
GI50 (SW-620): > 100 µM (inactive)
GI50 (T47D): > 100 µM (inactive)
GI50 (TK-10): > 100 µM (inactive)
GI50 (U-251): > 100 µM (inactive)
GI50 (UACC-257): > 100 µM (inactive)
GI50 (UACC-62): > 100 µM (inactive)
GI50 (UO-31): > 100 µM (inactive)
